Measurements as given in US9302999B2, “Substituted triazoles as herbicides” (E. I. DU PONT DE NEMOURS AND COMPANY, priority 2012, dated 2016).

What was measured:
Assay type in all cases: in vivo
[1] = test system: chickweed (common chickweed, Stellaria media); test: Test C postemergence: chickweed
Procedure, shortened: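 Response values are visual ratings, 0 (no effect) to 100 (complete control), made by comparison with untreated controls 13 to 15 days after postemergence treatment of greenhouse-grown potted plants that were 2 to 18 cm high at spraying.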

[2] = test system: morningglory (Ipomoea spp.); test: Test A pre-/postemergence: morningglory; settings: Postemergence, 0 to 100 scale, 0 is no effect, 100 is complete control
Procedure, shortened: (§1)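 Compounds, formulated with surfactant in non-phytotoxic solvent, were applied as a directed soil spray preemergence and as postemergence sprays to 2–10 cm, one- to two-leaf seedlings grown in loam soil blended with sand; visual injury, 0–100, assessed ~10 days post-treatment against untreated controls.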

[3] = test system: ryegrass, Italian (Italian ryegrass, Lolium multiflorum); test: Test C pre-/postemergence: ryegrass, Italian
Procedure, shortened: (§2)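 Visual injury scored 0–100 (100 = complete control) against untreated controls after 13–15 greenhouse days. Surfactant-containing solvent formulations applied either to soil after sowing (loam/sand) or over 1- to 4-leaf plants, 2–18 cm tall.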

[4] = test system: wheat (Triticum aestivum); test: Test A pre-/postemergence: wheat
Procedure, shortened: as §1

corn (Zea mays) = test: Test A pre-/postemergence: corn
Procedure, shortened: as §1

[5] = test system: morningglory (Ipomoea coccinea); test: Test C pre-/postemergence: morningglory
Procedure, shortened: as §2

[6] = test system: lambsquarters (Chenopodium album); test: Test C pre-/postemergence: lambsquarters; settings: Postemergence
Procedure, shortened: as §2

[7] = test system: pigweed (Amaranthus retroflexus); test: Test A pre-/postemergence: pigweed
Procedure, shortened: as §1

[8] = test system: pigweed (Amaranthus retroflexus); test: Test C pre-/postemergence: pigweed
Procedure, shortened: as §2

kochia (Kochia scoparia) = test: Test C pre-/postemergence: kochia; settings: Postemergence
Procedure, shortened: as §2

[9] = test system: velvetleaf (Abutilon theophrasti); test: Test A pre-/postemergence: velvetleaf
Procedure, shortened: as §1

[10] = test system: foxtail, giant (giant foxtail, Setaria faberii); test: Test C pre-/postemergence: foxtail, giant
Procedure, shortened: as §2

[11] = 31 g ai/ha, scale 0 to 100 (0 no effect, 100 complete control)
[12] = 62 g ai/ha, scale 0 to 100 (0 no effect, 100 complete control)
[13] = 125 g ai/ha, scale 0 to 100, 0 no effect, 100 complete control
[14] = Postemergence, 31 g ai/ha, scale 0 to 100 (0 no effect, 100 complete control)
[15] = Postemergence, 62 g ai/ha, scale 0 to 100 (0 no effect, 100 complete control)
[16] = Postemergence, 125 g ai/ha, scale 0 to 100, 0 no effect, 100 complete control
[17] = Postemergence, 250 g ai/ha, scale 0 to 100
[18] = Preemergence, 31 g ai/ha, scale 0 (no effect) to 100 (complete control)
[19] = Preemergence, 62 g ai/ha, scale of 0 to 100, 0 is no effect, 100 is complete control
[20] = Preemergence, 125 g ai/ha, scale 0 to 100, 0 no effect, 100 complete control
[21] = Preemergence, 250 g ai/ha, scale 0 to 100, 0 no effect, 100 complete control
[22] = Postemergence, 125 g ai/ha, 0 to 100 scale, 0 is no effect, 100 is complete control
[23] = Postemergence, 500 g ai/ha, 0 to 100 scale, 0 is no effect, 100 is complete control
[24] = Preemergence, 125 g ai/ha, 0 to 100 scale where 0 is no effect and 100 is complete control
[25] = Preemergence, 500 g ai/ha, 0 to 100 scale (0 no effect, 100 complete control)

With `CCc1nn(-c2ccc(F)cc2)nc1Oc1ccnc(C(F)(F)F)c1` [Compound 166] the “Plant response rating, Chickweed” value [1, 11] was 55, the “Plant response rating, Chickweed” value [1, 12] was 90 and the “Plant response rating, Chickweed” value [1, 13] was 90. For the same compound, the “Plant response rating, Chickweed” value ([1]; 250 g ai/ha, scale 0 to 100) was 90, the “Plant response rating, Morningglory” value ([2]; 125 g ai/ha) was 90 and the “Morningglory plant response rating” value ([2]; 500 g ai/ha) was 100. For the same compound, the “Plant response rating, Ryegrass, Italian” value [3, 14] was 5, the “Plant response rating, Ryegrass, Italian” value [3, 15] was 5 and the “Plant response rating, Ryegrass, Italian” value [3, 16] was 20. For the same compound, the “Plant response rating, Ryegrass, Italian” value [3, 17] was 25, the “Plant response rating, Ryegrass, Italian” value [3, 18] was 5 and the “Plant response rating, Ryegrass, Italian” value [3, 19] was 40. For the same compound, the “Plant response rating, Ryegrass, Italian” value [3, 20] was 50, the “Plant response rating, Ryegrass, Italian” value [3, 21] was 100 and the “Plant response rating, Wheat” value [4, 22] was 30. The “Wheat plant response rating” value [4, 23] was 40, the “Plant response rating, Wheat” value [4, 24] was 10 and the “Plant response rating, Wheat” value [4, 25] was 50. For the same compound, the “Plant response rating, Corn” value (corn (Zea mays); [22]) was 20, the “Corn plant response rating” value (corn (Zea mays); [23]) was 30 and the “Plant response rating, Corn” value (corn (Zea mays); [24]) was 10. For the same compound, the “Plant response rating, Corn” value (corn (Zea mays); [25]) was 30, the “Plant response rating, Morningglory” value [5, 14] was 30 and the “Plant response rating, Morningglory” value [5, 15] was 30. The “Plant response rating, Morningglory” value [5, 16] was 35, the “Plant response rating, Morningglory” value [5, 17] was 65 and the “Plant response rating, Morningglory” value [5, 19] was 10. The “Plant response rating, Morningglory” value [5, 20] was 25, the “Plant response rating, Morningglory” value [5, 21] was 45 and the “Plant response rating, Lambsquarters” value [6, 11] was 60. For the same compound, the “Plant response rating, Lambsquarters” value [6, 12] was 95, the “Plant response rating, Lambsquarters” value [6, 13] was 95 and the “Plant response rating, Lambsquarters” value ([6]; 250 g ai/ha, scale 0 to 100) was 98. The “Plant response rating, Pigweed” value [7, 22] was 100, the “Pigweed plant response rating” value [7, 23] was 100 and the “Plant response rating, Pigweed” value [7, 24] was 100. The “Plant response rating, Pigweed” value [7, 25] was 100, the “Plant response rating, Pigweed” value [8, 14] was 35 and the “Plant response rating, Pigweed” value [8, 15] was 85. The “Plant response rating, Pigweed” value [8, 16] was 95, the “Plant response rating, Pigweed” value [8, 17] was 98 and the “Plant response rating, Pigweed” value [8, 18] was 100. The “Plant response rating, Pigweed” value [8, 19] was 100, the “Plant response rating, Pigweed” value [8, 20] was 100 and the “Plant response rating, Pigweed” value [8, 21] was 100. For the same compound, the “Plant response rating, Kochia” value (kochia (Kochia scoparia); [11]) was 90, the “Plant response rating, Kochia” value (kochia (Kochia scoparia); [12]) was 90 and the “Plant response rating, Kochia” value (kochia (Kochia scoparia); [13]) was 90. The “Plant response rating, Kochia” value (kochia (Kochia scoparia); 250 g ai/ha, scale 0 to 100) was 90, the “Plant response rating, Velvetleaf” value [9, 22] was 80 and the “Velvetleaf plant response rating” value [9, 23] was 100. For the same compound, the “Plant response rating, Velvetleaf” value [9, 24] was 30, the “Plant response rating, Velvetleaf” value [9, 25] was 70 and the “Plant response rating, Foxtail, Giant” value [10, 14] was 20. For the same compound, the “Plant response rating, Foxtail, Giant” value [10, 15] was 40, the “Plant response rating, Foxtail, Giant” value [10, 16] was 40 and the “Plant response rating, Foxtail, Giant” value [10, 17] was 40. The “Plant response rating, Foxtail, Giant” value [10, 18] was 100, the “Plant response rating, Foxtail, Giant” value [10, 19] was 100 and the “Plant response rating, Foxtail, Giant” value [10, 20] was 100. For the same compound, the “Plant response rating, Foxtail, Giant” value [10, 21] was 100.
